# According to article PMC12136037, “Type II kinase inhibitors that target Parkinson’s disease–associated LRRK2” (Science Advances, 2025):
# How the values were obtained:
# Test in all cases: 33PanQinase kinome-wide selectivity profile (Reaction Biology)
# Format in all cases: biochemical
# 350 wild-type kinases [1] = target: T1, 350 wild-type kinases (Homo sapiens, UniProt P50750); conditions: singlicate; for Residual activity (% of control), CDK9/CycK: kinase CDK9/CycK, ATP 1 µM; for Residual activity (% of control), CDK9/CycT1: kinase CDK9/CycT1, ATP 0,3 µM
# T1 construct: purchased Reaction Biology (assay service)
# T1 sequence (P50750 whole entry): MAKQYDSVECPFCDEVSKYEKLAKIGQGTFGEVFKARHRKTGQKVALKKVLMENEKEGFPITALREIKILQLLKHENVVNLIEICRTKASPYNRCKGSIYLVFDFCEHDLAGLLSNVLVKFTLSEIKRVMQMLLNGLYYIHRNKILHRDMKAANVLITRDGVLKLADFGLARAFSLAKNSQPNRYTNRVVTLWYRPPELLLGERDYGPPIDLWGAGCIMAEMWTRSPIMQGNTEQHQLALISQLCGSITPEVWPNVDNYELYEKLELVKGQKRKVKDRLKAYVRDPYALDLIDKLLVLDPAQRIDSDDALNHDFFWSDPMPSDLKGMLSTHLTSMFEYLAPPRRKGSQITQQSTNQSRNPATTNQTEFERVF
# Protocol: (§1) Compound RN341 was tested at two concentrations of 1 and 10 μM against a panel of 350 wild-type kinases in the ^33PanQinase assay. The assay was performed by Reaction Biology (www.reactionbiology.com/services/kinase-assays/kinase-panel-screening/).
# 350 wild-type kinases [2] = target: T2, 350 wild-type kinases (Homo sapiens, UniProt P21127); conditions: kinase CDK11B/CycK, ATP 0,1 µM, singlicate
# T2 construct: purchased Reaction Biology (assay service)
# Protocol: as §1
# 350 wild-type kinases [3] = target: T3, 350 wild-type kinases (Homo sapiens, UniProt Q9Y243); conditions: kinase AKT3, ATP 3 µM, singlicate
# T3 construct: purchased Reaction Biology (assay service)
# Protocol: as §1
# 350 wild-type kinases [4] = target: T4, 350 wild-type kinases (Homo sapiens, UniProt Q96Q40); conditions: singlicate; for Residual activity (% of control), CDK15/CycA2: kinase CDK15/CycA2, ATP 1 µM; for Residual activity (% of control), CDK15/CycB1: kinase CDK15/CycB1, ATP 0,3 µM
# T4 construct: purchased Reaction Biology (assay service)
# T4 sequence (Q96Q40 whole entry): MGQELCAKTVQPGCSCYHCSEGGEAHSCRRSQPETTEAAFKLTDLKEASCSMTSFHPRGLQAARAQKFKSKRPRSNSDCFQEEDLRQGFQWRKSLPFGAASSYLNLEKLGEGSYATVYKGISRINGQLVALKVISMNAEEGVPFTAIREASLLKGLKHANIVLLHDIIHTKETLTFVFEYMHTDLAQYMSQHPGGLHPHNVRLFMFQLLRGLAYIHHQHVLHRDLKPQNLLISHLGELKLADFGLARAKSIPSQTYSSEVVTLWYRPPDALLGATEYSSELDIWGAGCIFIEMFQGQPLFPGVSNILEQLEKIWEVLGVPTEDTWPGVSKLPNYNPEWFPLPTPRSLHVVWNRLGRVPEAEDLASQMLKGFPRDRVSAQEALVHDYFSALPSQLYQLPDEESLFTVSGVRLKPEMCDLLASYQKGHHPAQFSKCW
# Protocol: as §1
# 350 wild-type kinases [5] = target: T5, 350 wild-type kinases (Homo sapiens, UniProt P31751); conditions: kinase AKT2, ATP 10 µM, singlicate
# T5 construct: purchased Reaction Biology (assay service)
# Protocol: as §1
# 350 wild-type kinases [6] = target: T6, 350 wild-type kinases (Homo sapiens, UniProt Q16832); conditions: kinase DDR2, ATP 0,1 µM, singlicate
# T6 construct: purchased Reaction Biology (assay service)
# Protocol: as §1
# 350 wild-type kinases [7] = target: T7, 350 wild-type kinases (Homo sapiens, UniProt P30530); conditions: kinase AXL, ATP 0,3 µM, singlicate
# T7 construct: purchased Reaction Biology (assay service)
# T7 sequence (P30530 26-894): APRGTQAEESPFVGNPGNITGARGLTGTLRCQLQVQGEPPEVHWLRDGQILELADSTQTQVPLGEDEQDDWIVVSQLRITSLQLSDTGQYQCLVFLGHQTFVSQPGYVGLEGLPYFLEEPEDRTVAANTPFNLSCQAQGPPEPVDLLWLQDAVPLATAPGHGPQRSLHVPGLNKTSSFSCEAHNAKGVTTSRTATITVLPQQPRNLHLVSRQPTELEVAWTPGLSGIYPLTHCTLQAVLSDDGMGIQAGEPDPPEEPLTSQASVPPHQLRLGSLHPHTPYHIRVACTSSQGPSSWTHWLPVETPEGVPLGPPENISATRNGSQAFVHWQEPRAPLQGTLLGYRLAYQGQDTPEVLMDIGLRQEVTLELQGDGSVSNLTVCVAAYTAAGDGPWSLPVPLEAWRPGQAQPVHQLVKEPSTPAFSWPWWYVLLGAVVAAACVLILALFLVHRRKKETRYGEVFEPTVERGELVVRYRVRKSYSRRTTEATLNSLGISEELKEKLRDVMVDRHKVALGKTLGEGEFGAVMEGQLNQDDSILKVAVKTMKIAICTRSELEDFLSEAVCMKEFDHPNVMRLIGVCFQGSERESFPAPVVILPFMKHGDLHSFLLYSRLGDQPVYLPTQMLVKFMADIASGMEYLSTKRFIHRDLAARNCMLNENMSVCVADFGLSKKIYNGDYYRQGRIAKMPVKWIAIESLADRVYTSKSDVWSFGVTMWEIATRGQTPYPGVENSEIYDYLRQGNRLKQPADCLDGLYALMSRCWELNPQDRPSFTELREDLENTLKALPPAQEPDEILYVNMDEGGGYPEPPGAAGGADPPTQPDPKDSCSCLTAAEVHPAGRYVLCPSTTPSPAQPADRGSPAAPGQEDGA
# Protocol: as §1
# 350 wild-type kinases [8] = target: T8, 350 wild-type kinases (Homo sapiens, UniProt O14965); conditions: kinase AuroraA, ATP 10 µM, singlicate
# T8 construct: purchased Reaction Biology (assay service)
# T8 sequence (O14965 whole entry): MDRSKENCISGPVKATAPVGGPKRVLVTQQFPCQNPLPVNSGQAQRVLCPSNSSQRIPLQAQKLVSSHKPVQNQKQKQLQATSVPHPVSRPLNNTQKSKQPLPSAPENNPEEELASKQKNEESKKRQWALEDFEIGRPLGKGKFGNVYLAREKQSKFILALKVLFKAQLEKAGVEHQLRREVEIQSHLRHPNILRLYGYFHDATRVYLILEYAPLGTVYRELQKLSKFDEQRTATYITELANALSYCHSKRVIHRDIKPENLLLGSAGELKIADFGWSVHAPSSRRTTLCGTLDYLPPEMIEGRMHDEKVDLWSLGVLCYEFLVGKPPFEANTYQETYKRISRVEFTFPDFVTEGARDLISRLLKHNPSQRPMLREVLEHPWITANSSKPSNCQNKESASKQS
# Protocol: as §1
# 350 wild-type kinases [9] = target: T9, 350 wild-type kinases (Homo sapiens, UniProt Q04771); conditions: kinase ACVR1, ATP 3 µM, singlicate
# T9 construct: purchased Reaction Biology (assay service)
# Protocol: as §1
# 350 wild-type kinases [10] = target: T10, 350 wild-type kinases (Homo sapiens, UniProt Q9BWU1); conditions: kinase CDK19/CycC, ATP 3 µM, singlicate
# T10 construct: purchased Reaction Biology (assay service)
# T10 sequence (Q9BWU1 whole entry): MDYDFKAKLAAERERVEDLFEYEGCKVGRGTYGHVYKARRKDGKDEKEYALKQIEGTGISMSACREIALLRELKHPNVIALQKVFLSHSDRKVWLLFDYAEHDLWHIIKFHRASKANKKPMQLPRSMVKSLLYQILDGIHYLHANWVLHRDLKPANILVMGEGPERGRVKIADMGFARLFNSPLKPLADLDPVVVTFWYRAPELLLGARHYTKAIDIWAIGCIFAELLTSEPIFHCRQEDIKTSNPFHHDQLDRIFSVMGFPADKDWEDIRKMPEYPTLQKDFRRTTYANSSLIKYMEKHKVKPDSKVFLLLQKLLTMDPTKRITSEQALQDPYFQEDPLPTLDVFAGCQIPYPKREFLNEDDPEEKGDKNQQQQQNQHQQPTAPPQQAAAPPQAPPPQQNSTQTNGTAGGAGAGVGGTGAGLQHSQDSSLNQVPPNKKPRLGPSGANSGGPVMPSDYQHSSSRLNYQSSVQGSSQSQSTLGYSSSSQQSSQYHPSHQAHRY
# Protocol: as §1
# 350 wild-type kinases [11] = target: T11, 350 wild-type kinases (Homo sapiens, UniProt P36894); conditions: kinase BMPR1A, ATP 3 µM, singlicate
# T11 construct: purchased Reaction Biology (assay service)
# T11 sequence (P36894 24-532): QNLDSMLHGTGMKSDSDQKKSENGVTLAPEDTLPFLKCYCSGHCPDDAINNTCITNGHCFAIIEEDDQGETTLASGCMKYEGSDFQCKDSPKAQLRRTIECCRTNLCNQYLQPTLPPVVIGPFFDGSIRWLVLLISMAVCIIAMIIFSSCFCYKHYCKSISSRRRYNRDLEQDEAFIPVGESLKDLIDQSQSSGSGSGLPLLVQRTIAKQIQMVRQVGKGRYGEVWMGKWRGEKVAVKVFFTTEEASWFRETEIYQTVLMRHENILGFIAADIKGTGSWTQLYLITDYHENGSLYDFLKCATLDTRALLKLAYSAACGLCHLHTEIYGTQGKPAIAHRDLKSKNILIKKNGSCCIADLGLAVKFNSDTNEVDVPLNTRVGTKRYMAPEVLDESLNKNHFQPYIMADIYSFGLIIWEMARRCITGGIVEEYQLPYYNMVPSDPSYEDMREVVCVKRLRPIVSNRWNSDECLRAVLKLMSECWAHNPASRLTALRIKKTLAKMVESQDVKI
# Protocol: as §1
# 350 wild-type kinases [12] = target: T12, 350 wild-type kinases (Homo sapiens, UniProt Q13705); conditions: kinase ACVR2B, ATP 1 µM, singlicate
# T12 construct: purchased Reaction Biology (assay service)
# Protocol: as §1
# 350 wild-type kinases [13] = target: T13, 350 wild-type kinases (Homo sapiens, UniProt P51813); conditions: kinase BMX, ATP 1 µM, singlicate
# T13 construct: purchased Reaction Biology (assay service)
# Protocol: as §1
# 350 wild-type kinases [14] = target: T14, 350 wild-type kinases (Homo sapiens, UniProt Q13627); conditions: kinase DYRK1A, ATP 1 µM, singlicate
# T14 construct: purchased Reaction Biology (assay service)
# Protocol: as §1
# 350 wild-type kinases [15] = target: T15, 350 wild-type kinases (Homo sapiens, UniProt Q9UQB9); conditions: kinase AuroraC, ATP 3 µM, singlicate
# T15 construct: purchased Reaction Biology (assay service)
# T15 sequence (Q9UQB9 whole entry): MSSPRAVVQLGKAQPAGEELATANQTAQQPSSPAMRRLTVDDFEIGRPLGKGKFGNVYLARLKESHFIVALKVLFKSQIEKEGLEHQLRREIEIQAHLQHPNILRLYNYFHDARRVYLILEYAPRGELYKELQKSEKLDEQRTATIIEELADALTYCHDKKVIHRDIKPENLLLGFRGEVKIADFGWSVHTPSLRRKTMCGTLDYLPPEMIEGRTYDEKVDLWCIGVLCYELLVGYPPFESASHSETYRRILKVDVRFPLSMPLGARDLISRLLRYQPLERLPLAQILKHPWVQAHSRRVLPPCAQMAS
# Protocol: as §1
# 350 wild-type kinases [16] = target: T16, 350 wild-type kinases (Homo sapiens, UniProt Q09013); conditions: kinase DMPK, ATP 0,1 µM, singlicate
# T16 construct: purchased Reaction Biology (assay service)
# T16 sequence (Q09013 whole entry): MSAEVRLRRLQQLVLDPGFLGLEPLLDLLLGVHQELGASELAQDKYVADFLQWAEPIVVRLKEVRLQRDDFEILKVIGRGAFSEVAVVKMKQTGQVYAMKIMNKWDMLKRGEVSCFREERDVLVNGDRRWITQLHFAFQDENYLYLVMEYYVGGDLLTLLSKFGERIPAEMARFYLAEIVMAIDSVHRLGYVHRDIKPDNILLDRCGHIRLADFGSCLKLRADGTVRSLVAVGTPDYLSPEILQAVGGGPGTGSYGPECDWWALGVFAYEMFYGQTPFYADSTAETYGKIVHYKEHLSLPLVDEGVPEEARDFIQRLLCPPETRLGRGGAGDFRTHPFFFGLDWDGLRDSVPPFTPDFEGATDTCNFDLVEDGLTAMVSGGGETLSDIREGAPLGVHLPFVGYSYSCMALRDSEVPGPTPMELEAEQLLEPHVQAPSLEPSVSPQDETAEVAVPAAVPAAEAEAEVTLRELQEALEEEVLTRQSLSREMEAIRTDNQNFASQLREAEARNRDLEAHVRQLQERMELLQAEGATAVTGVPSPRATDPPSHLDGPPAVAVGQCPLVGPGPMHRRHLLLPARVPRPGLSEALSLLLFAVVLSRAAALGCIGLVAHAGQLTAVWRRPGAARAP
# Protocol: as §1
# 350 wild-type kinases [17] = target: T17, 350 wild-type kinases (Homo sapiens, UniProt Q8IZL9); conditions: singlicate; for Residual activity (% of control), CDK20/CycH: kinase CDK20/CycH, ATP 0,1 µM; for Residual activity (% of control), CDK20/CycT1: kinase CDK20/CycT1, ATP 1 µM
# T17 construct: purchased Reaction Biology (assay service)
# T17 sequence (Q8IZL9 whole entry): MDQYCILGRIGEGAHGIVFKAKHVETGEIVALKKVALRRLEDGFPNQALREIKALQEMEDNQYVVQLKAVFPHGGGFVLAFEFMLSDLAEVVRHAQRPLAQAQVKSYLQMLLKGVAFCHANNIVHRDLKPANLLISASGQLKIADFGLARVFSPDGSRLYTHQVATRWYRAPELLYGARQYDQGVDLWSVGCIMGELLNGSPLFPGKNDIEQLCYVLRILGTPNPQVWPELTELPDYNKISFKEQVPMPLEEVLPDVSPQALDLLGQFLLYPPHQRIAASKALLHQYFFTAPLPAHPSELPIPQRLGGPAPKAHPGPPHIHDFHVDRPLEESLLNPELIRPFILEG
# Protocol: as §1
# 350 wild-type kinases [18] = target: T18, 350 wild-type kinases (Homo sapiens, UniProt P27037); conditions: kinase ACVR2A, ATP 3 µM, singlicate
# T18 construct: purchased Reaction Biology (assay service)
# T18 sequence (P27037 20-513): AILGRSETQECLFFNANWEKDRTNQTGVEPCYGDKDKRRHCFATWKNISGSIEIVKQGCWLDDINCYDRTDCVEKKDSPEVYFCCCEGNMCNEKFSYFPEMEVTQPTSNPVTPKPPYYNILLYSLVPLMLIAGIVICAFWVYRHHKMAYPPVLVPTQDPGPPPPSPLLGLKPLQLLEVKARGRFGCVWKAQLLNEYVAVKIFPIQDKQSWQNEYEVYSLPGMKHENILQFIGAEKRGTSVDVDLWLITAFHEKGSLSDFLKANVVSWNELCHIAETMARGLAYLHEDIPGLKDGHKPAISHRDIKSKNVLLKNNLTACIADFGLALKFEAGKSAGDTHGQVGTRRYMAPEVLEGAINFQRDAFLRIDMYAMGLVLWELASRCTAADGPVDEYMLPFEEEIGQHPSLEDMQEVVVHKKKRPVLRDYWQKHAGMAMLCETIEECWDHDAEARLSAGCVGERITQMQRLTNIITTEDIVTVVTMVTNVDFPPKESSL
# Protocol: as §1
# 350 wild-type kinases [19] = target: T19, 350 wild-type kinases (Homo sapiens, UniProt P51451); conditions: kinase BLK, ATP 0,3 µM, singlicate
# T19 construct: purchased Reaction Biology (assay service)
# Protocol: as §1
compound,measurement,setting,value
CCSc1nc(NC)c2c(-c3cccc(NC(=O)Nc4cc(C(C)(C)C)nn4-c4ccc(C)cc4)c3)c[nH]c2n1 [Compound 32],"Residual activity (% of control), CDK9/CycK",350 wild-type kinases [1]; Assay Conc. 1.0E-05 M,86 % of control
same,"Residual activity (% of control), CDK9/CycK",350 wild-type kinases [1]; Assay Conc. 1.0E-06 M,111 % of control
same,"Residual activity (% of control), CDK9/CycT1",350 wild-type kinases [1]; Assay Conc. 1.0E-05 M,85 % of control
same,"Residual activity (% of control), CDK9/CycT1",350 wild-type kinases [1]; Assay Conc. 1.0E-06 M,106 % of control
same,"Residual activity (% of control), CDK11B/CycK",350 wild-type kinases [2]; Assay Conc. 1.0E-05 M,99 % of control
same,"Residual activity (% of control), CDK11B/CycK",350 wild-type kinases [2]; Assay Conc. 1.0E-06 M,96 % of control
same,"Residual activity (% of control), AKT3",350 wild-type kinases [3]; Assay Conc. 1.0E-05 M,113 % of control
same,"Residual activity (% of control), AKT3",350 wild-type kinases [3]; Assay Conc. 1.0E-06 M,115 % of control
same,"Residual activity (% of control), CDK15/CycA2",350 wild-type kinases [4]; Assay Conc. 1.0E-05 M,92 % of control
same,"Residual activity (% of control), CDK15/CycA2",350 wild-type kinases [4]; Assay Conc. 1.0E-06 M,116 % of control
same,"Residual activity (% of control), CDK15/CycB1",350 wild-type kinases [4]; Assay Conc. 1.0E-05 M,86 % of control
same,"Residual activity (% of control), CDK15/CycB1",350 wild-type kinases [4]; Assay Conc. 1.0E-06 M,98 % of control
same,"Residual activity (% of control), AKT2",350 wild-type kinases [5]; Assay Conc. 1.0E-05 M,88 % of control
same,"Residual activity (% of control), AKT2",350 wild-type kinases [5]; Assay Conc. 1.0E-06 M,117 % of control
same,"Residual activity (% of control), DDR2",350 wild-type kinases [6]; Assay Conc. 1.0E-05 M,20 % of control
same,"Residual activity (% of control), DDR2",350 wild-type kinases [6]; Assay Conc. 1.0E-06 M,79 % of control
same,"Residual activity (% of control), AXL",350 wild-type kinases [7]; Assay Conc. 1.0E-05 M,59 % of control
same,"Residual activity (% of control), AXL",350 wild-type kinases [7]; Assay Conc. 1.0E-06 M,94 % of control
same,"Residual activity (% of control), AuroraA",350 wild-type kinases [8]; Assay Conc. 1.0E-05 M,74 % of control
same,"Residual activity (% of control), AuroraA",350 wild-type kinases [8]; Assay Conc. 1.0E-06 M,96 % of control
same,"Residual activity (% of control), ACVR1",350 wild-type kinases [9]; Assay Conc. 1.0E-05 M,93 % of control
same,"Residual activity (% of control), ACVR1",350 wild-type kinases [9]; Assay Conc. 1.0E-06 M,107 % of control
same,"Residual activity (% of control), CDK19/CycC",350 wild-type kinases [10]; Assay Conc. 1.0E-05 M,54 % of control
same,"Residual activity (% of control), CDK19/CycC",350 wild-type kinases [10]; Assay Conc. 1.0E-06 M,97 % of control
same,"Residual activity (% of control), BMPR1A",350 wild-type kinases [11]; Assay Conc. 1.0E-05 M,85 % of control
same,"Residual activity (% of control), BMPR1A",350 wild-type kinases [11]; Assay Conc. 1.0E-06 M,97 % of control
same,"Residual activity (% of control), ACVR2B",350 wild-type kinases [12]; Assay Conc. 1.0E-05 M,98 % of control
same,"Residual activity (% of control), ACVR2B",350 wild-type kinases [12]; Assay Conc. 1.0E-06 M,123 % of control
same,"Residual activity (% of control), BMX",350 wild-type kinases [13]; Assay Conc. 1.0E-05 M,68 % of control
same,"Residual activity (% of control), BMX",350 wild-type kinases [13]; Assay Conc. 1.0E-06 M,109 % of control
same,"Residual activity (% of control), DYRK1A",350 wild-type kinases [14]; Assay Conc. 1.0E-05 M,48 % of control
same,"Residual activity (% of control), DYRK1A",350 wild-type kinases [14]; Assay Conc. 1.0E-06 M,75 % of control
same,"Residual activity (% of control), AuroraC",350 wild-type kinases [15]; Assay Conc. 1.0E-05 M,77 % of control
same,"Residual activity (% of control), AuroraC",350 wild-type kinases [15]; Assay Conc. 1.0E-06 M,105 % of control
same,"Residual activity (% of control), DMPK",350 wild-type kinases [16]; Assay Conc. 1.0E-05 M,69 % of control
same,"Residual activity (% of control), DMPK",350 wild-type kinases [16]; Assay Conc. 1.0E-06 M,106 % of control
same,"Residual activity (% of control), CDK20/CycH",350 wild-type kinases [17]; Assay Conc. 1.0E-05 M,87 % of control
same,"Residual activity (% of control), CDK20/CycH",350 wild-type kinases [17]; Assay Conc. 1.0E-06 M,103 % of control
same,"Residual activity (% of control), CDK20/CycT1",350 wild-type kinases [17]; Assay Conc. 1.0E-05 M,84 % of control
same,"Residual activity (% of control), CDK20/CycT1",350 wild-type kinases [17]; Assay Conc. 1.0E-06 M,99 % of control
same,"Residual activity (% of control), ACVR2A",350 wild-type kinases [18]; Assay Conc. 1.0E-05 M,92 % of control
same,"Residual activity (% of control), ACVR2A",350 wild-type kinases [18]; Assay Conc. 1.0E-06 M,102 % of control
same,"Residual activity (% of control), BLK",350 wild-type kinases [19]; Assay Conc. 1.0E-05 M,55 % of control
same,"Residual activity (% of control), BLK",350 wild-type kinases [19]; Assay Conc. 1.0E-06 M,78 % of control
